Test results reported in patent publication US8765689B2, “Anti-ageing peptides modulating survivin and compositions including same” (ISP Investments Inc., priority 2010, dated 2014).
Ends that are not written are not given here.

Key:
Survivin protein = Survivin protein expression by Western Blotting on cultured cellular fractions RA and SA1; type: cell-based, human; conditions: 48 hours, compound diluted to 3% (from a 10^-4 M solution)
Procedure: To investigate the role of the CPC proteins in the maintenance and protection of epidermal adult stem cells under various types of stress, several fractions of primary cells of human epidermis were prepared. Fractioning was carried out based on the adhesion time of cells to collagen IV: less than 20 minutes corresponds to fast adhesion (fraction RA), less than 5 hours, to slow adhesion No 1 (fraction SA1), less than 16 hours, to slow adhesion No 2 (fraction SA2), and lastly, non-adhering keratinocytes (fractions NA). […]
An investigation of the modulator effect of the peptide SEQ ID NO: 2 was conducted by evaluating the expression of the Survivin protein by Western Blotting on the cultured cellular fractions RA and SA1. The Western Blot technique is a conventional semi-quantitative method for assessing the proportion of proteins in cells.
Fractions RA and SA1 were grown in boxes 100 mm in diameter at 37° C. in a humidified atmosphere containing 5% CO2 for 48 hours with or without the compound, diluted to 3% (from a 10^−4 M solution). […] The quantitative evaluation of the proteins in the cells is performed using the Chemiimager software (Alpha Innotech Corporation USA). The amount of proteins is expressed as a percentage of the light intensity compared with that of the control conditions, under which no treatment has been received.

[1] = test system: cellular fraction RA (enriched with epidermal adult stem cells); assay: Comets test on cellular fraction RA after UVB irradiation; type: cell-based, human; conditions: RA cells cultured 24 hours with peptide at 1%, then UVB 60 mJ/cm^2
Procedure: The comets test is a test that allows damage caused to DNA to be quantified at a cellular level.
To this end, in order to confirm the protective effect of a peptide compound according to the present invention, cells of the RA type were cultured for 24 hours with the peptide compound of sequence SEQ ID NO: 2 at a concentration of 1%, and then irradiated with
UVB radiation at 60 mJ/cm^2. […] The cells were then removed by trypsination from their carrier, and then centrifuged at 900 rpm for 5 minutes before being concentrated and counted.
A specific cell count (25,000 cells) was then incorporated into a 0.75% Low Melting agarose gel, and then deposited on a glass slide previously coated with 1% agarose. The slides were then immersed in a lysis solution for 1.5 hours at 4° C., and then in an alkaline solution for 20 minutes at 4° C. The cells were then lysed and the DNA denatured. The slides were immersed in an electrophoresis solution before applying an electric field (20 V-250 mA). The thus denatured DNA was subjected to migration within an agarose gel at 4° C. Applying a DNA fluorescent dye on the slides (2 μg/ml propidium iodide) allowed the DNA to be observed in the form of comets in those cases where it had been damaged.
Quantification software is used to determine the average Tail moment applied to each condition being tested. […]

Keratin K19 = Keratin K19 immunolabeling in UV-irradiated hair follicles maintained in culture; type: cell-based; conditions: hair follicles treated with 1% peptide 24 hours before UV irradiation (UVA 5 J/cm, UVB 200 mJ/cm^2); image analysis
Procedure: The hair follicles were sampled from a biopsy using a scalpel and fine pliers, and then cultured in 24-well plates using William's E medium in the presence of antibiotics (0.2% Primocin), 10 μg/ml insulin, 10 ng/ml hydrocortisone and 2 mmol/L L-glutamine.
The follicles were either treated or not with the 1% peptide compound SEQ ID NO: 2 in Williams' medium and then incubated for 24 hours. UV irradiation was then applied (UVA: 5 J/cm, UVB 200 mJ/cm^2), and the follicles were then re-cultured for 24 hours. At the end of the experiment, the follicles were incorporated within OCT and frozen at −196° C. (liquid nitrogen). The follicles were then placed in a cryostat in order to prepare 6-μm sections at a temperature of −23° C. The slides containing the sections were placed in an acetone bath for 10 minutes (fixing) and then rinsed.
The fixed sections were rinsed once with PBS for 5 minutes, and then wrapped in Pappen. Each section was incubated with 5 μl 5%-BSA for 30 minutes. Then, 50 μl of primary anti-Cytokeratin K19 antibody (Progen, Mouse monoclonal) diluted to 1/50th were added and incubated for one hour with stirring in a humid chamber. After rinsing with PBS for 30 minutes, 50 μl of a fluorescence-labeled secondary antibody was added and left for one hour in the dark with stirring in a humid chamber. […]

[2] = test system: RA and TOTAL keratinocytes; assay: MITOSOX test (mitochondrial production of free radicals under H2O2 or UVB stress); type: cell-based, human; conditions: peptide at 1% and 3%, 48 hours, stress 5 mM H2O2 30 minutes or UVB 100 mJ/cm^2
Source text: Mitosox is a reactant marketed by Invitrogen (molecular probes M36008). It is used during UV and H2O2 oxidative stress. It uses microscopic imaging to measure the mitochondrial production of free radicals (ROS) in cells. More particularly, Mitosox is specific to the superoxide anion, which is the predominant form of ROS.
Mitosox is applied to living cells: it permeates the membrane and once inside the cell, diffuses rapidly and specifically within the mitochondria. Once in the mitochondria, Mitosox is oxidized by the superoxide anion into a compound which provides red fluorescence. This reactant is easily oxidized by the superoxide anion but not by other free radicals, nor by reactive species of nitrogen (NOS).
RA and TOTAL keratinocytes (where TOTAL denotes an entire cellular fraction) were treated three times per day with the peptide compound of SEQ ID NO: 3 at concentrations of 1% and 3%, for 48 hours.
In a second step, the cells were placed under stress, caused: • either by exposure to 5 mM H2O2 solution for 30 minutes; • or by UVB radiation at 100 mJ/cm^2.
After stress application, the cells were rinsed and then returned into a suitable medium for one hour at 37° C. in a culture incubator. […] The results were read using fluorescence microscopy.

## Arg-Glu-Met-Asn-Trp-NH2 (REMNW-NH2) [SEQ ID NO: 2]
Survivin protein; fraction RA (very rich in epidermal adult stem cells)
  expression of the Survivin protein: increased
Survivin protein; fraction SA1 (less rich in epidermal adult stem cells)
  expression of the Survivin protein: increased
[1]
  Tail Moment decrease vs UVB control: 44.7%
Keratin K19
  fluorescent values of Keratin K19: +102.7%

## DAREMNWDT [SEQ ID NO: 3]
[2]
  number of fluorescent cells (Mitosox, free radical production): extremely low
